US9399675B2, “Methods and compositions for diagnosing Alzheimer's disease and age-related macular degeneration” (The Board of Regents of the University of Oklahoma, priority 2007, dated 2016)

Legend:
HUVECs [1] = test: Flow cytometry of cell associated CAP37 in HUVECs; format: cell-based, human; conditions: 10 ng/ml TNFα, permeabilized HUVECs
Protocol: FIG. 6: Flow cytometric analysis of cell associated CAP37 in HUVECs. HUVECs were incubated 18 h in the absence (unt) or presence of 10 ng/ml TNFα (TNFα), permeabilized and labeled with antisera to human CAP37 or normal serum control. Cells were permeabilized to determine intracellular levels of CAP37. A representative histogram from two independent experiments. The shift due to FITC-staining indicates increased expression of CAP37 in TNFα stimulated cells. Also indicated is a low level of constitutive CAP37 expression (unt).
HUVECs that were serum starved for 6 h were incubated in the absence or presence of 10 ng/ml TNFα for 10 h and 18 h. Permeabilized and non-permeabilized cells were fixed and stained essentially as described by Gräbner (18). The cells were first blocked with 4% normal donkey serum (JACKSON), then incubated at 4° C. with rabbit anti-human CAP37 antisera (1:300), and followed by biotin-sp-donkey F(ab′)2 anti-rabbit IgG, (JACKSON, 1:200) at 4° C. For detection the cells were incubated with fluorescein (DTAF)-conjugated streptavidin (JACKSON) at 2 μg/ml at 4° C. Cells were analyzed by flow cytometry (FACSCALIBUR, BECTON DICKINSON, San Jose, Calif.). Unstained cells and cells stained with normal rabbit serum were included as controls.

HUVECs [2] = test: ELISA of released CAP37 in supernatants of HUVEC cultures; format: cell-based, human; conditions: supernatants of treated HUVEC cultures
Text: Flow cytometry confirmed the studies described in FIG. 5. TNFα treated cells that were permeabilized indicated up to a 5-fold increase of CAP37 expression over untreated cells (FIG. 6). […] To determine whether CAP37 is released from treated endothelial cells, ELISA was used to analyze supernatants from TNFα treated HUVEC cultures. Levels of released CAP37 from treated HUVECs were two-fold over untreated cells (data not shown). It was clear that the amount and proportion of CAP37 released from HUVECs was in general much less than the amount and proportion of CAP37 released from PMN (6). Almost 90% of total CAP37 is released from PMN following phagocytosis (6).

[3] = tested on: Human neuronal cells (ATCC, HCN-1A); test: Dot blot of released CAP37 in supernatants of human neuronal cells; format: cell-based; conditions: 75 μg/ml, 12 hrs, HCN-1A neurons
Protocol: FIG. 10: Dot blot analysis of supernatants from human neuronal cells in vitro with anti-CAP37 antiserum. Top row (from left to right) consists of CAP37 standards, at 20, 10, 5 and 2.5 μg/ml. 2nd row consists of doubling dilutions of supes from β-amyloid treated neuronal cultures. Row 3 consists of doubling dilutions of supes from untreated neuronal cultures. Row 4-no antigen/control.
The expression of CAP37 in neurons was further corroborated using in vitro culture. Human neuronal cells (ATCC, HCN-1A) were cultured according to specifications, transferred to serum-free medium for 6 hr and treated with β-amyloid fragment 1-42 (75 μg/ml), control peptide 40-1 (75 μg/ml), and media for 12 hrs. Supernatants were analyzed by dot blot for presence of released CAP37 (FIG. 10) and cells stained with anti-CAP37 antiserum (FIG. 11A) and normal mouse serum (FIG. 11B) to determine cell-associated CAP37.

| Substance | increase of CAP37 expression over untreated cells (HUVECs [1]) [fold] | levels of released CAP37 over untreated cells (HUVECs [2]) | concentration of released (secreted) CAP37 in supernatants [3] |
| --- | --- | --- | --- |
| TNFα | ≤ 5 | two-fold |  |
| β-amyloid fragment 1-42: toxic 42-amino acid beta-amyloid peptide used to induce CAP37 in human neurons |  |  | approximately 2.5 μg/ml |
